Columns and labels:
apherese blood platelets [1] = experiment: Apheresis platelets stored with Sul 136, hematology analysis (platelet count, MPV); format: cell-based; conditions: stored at 4° C. with Sul 136
Text: Platelets were obtained via standard plateletpheresis procedures either on Haemonetics (donor 2611811 and donor 2611855) or on Cobe instruments (donor 2611770). According the protocol all units would be obtained with plateletpheresis procedure with the Cobe instrument, but from the three donations two were not passing the blood bank quality control criteria. Nevertheless, all platelet donations have a similar concentration and a similar platelet quality. In none of the platelet concentrates clots were found. The freshly harvested platelets are weighed on a balance and for sampling of platelet concentrate a small PVC bag was seal-docked to the main platelet concentrate bag. Standard homogenization of platelet concentrate has to be done with a roller before sampling. 300 μM suspension of Sul 136 is added with a procedure, which keeps the bag content sterile and the Sul 136 is kept in suspension by frequent whirling and stored at 37° C. before it is added to the freshly harvested platelets. The Sul 136 suspension is added to three platelet bags directly from the bag. After addition, the content of the platelet bag is gently mixed. After 2 hours the first sample is drawn with a seal-docked sample bag. The sample bag is disconnected by welding and from this sample bag the samples are taken for hematology analyzing, aggregometer tests and the flow-cytometry tests. Swirling in the bag is reported by experience of the laboratory worker in the standard format. Platelets without Sul 136 put on a flatbed shaker and stored at room temperature were used as control. Another control is stored at 4° C. Platelet samples in which Sul 136 is added, are stored without shaking in a refrigerator at 4° C.

apherese blood platelets [2] = experiment: Apheresis platelets stored with Sul 136, Annexin V test by flow cytometry; format: cell-based; conditions: stored at 4° C. with Sul 136
Procedure: 300 μM suspension of Sul 136 is added with a procedure, which keeps the bag content sterile and the Sul 136 is kept in suspension by frequent whirling and stored at 37° C. before it is added to the freshly harvested platelets. The Sul 136 suspension is added to three platelet bags directly from the bag. After addition, the content of the platelet bag is gently mixed. After 2 hours the first sample is drawn with a seal-docked sample bag. The sample bag is disconnected by welding and from this sample bag the samples are taken for hematology analyzing, aggregometer tests and the flow-cytometry tests. Swirling in the bag is reported by experience of the laboratory worker in the standard format. Platelets without Sul 136 put on a flatbed shaker and stored at room temperature were used as control. Another control is stored at 4° C. Platelet samples in which Sul 136 is added, are stored without shaking in a refrigerator at 4° C.
On a Beckman Coulter FC 500 flow cytometer using the Roche Annexin-V FLUOS Staining Kit
A mix of 20 μl Annexin-V fluorescein from Roche kit into 1 ml incubation buffer was made and 20 μl propidium iodide solution was added. 2 ml of platelet concentrate was centrifuged on standard Eppendorf centrifuge and the supernatant was discarded.
1 ml PBS buffer was added and cell concentration was checked whether it was around 1.000.000. This was diluted 100 times with the prepared Annexin-V fluorescein and propidium iodide mix and incubated for 15 minutes. 500 μl incubation buffer from kit was added and cell analysis was made in a flowcytometer.

**Q.** With `Cc1c(C)c2c(c(C)c1O)CCC(C)(C(=O)N1CCN(CC(=O)O)CC1)O2` (racemic) [SUL - 136, 2-(4-(6-hydroxy-2,5,7,8-tetramethylchroman-2-carbonyl)piperazin-1-yl)acetic acid] as the compound, how does the MPV (apherese blood platelets [1]; Donor 2, Day 1) read?
**A.** 10.1 fL

**Q.** And the Platelets/μl (apherese blood platelets [1]; Donor 2, Day 1)?
**A.** 1,004,000 Platelets/μl

**Q.** And the MPV (apherese blood platelets [1]; Donor 2, Day 2)?
**A.** 7.6 fL

**Q.** And the Platelets/μl (apherese blood platelets [1]; Donor 2, Day 2)?
**A.** 1,272,000 Platelets/μl

**Q.** What about the MPV (apherese blood platelets [1]; Donor 2, Day 3) of the same compound?
**A.** 7.8 fL

**Q.** What about the Platelets/μl (apherese blood platelets [1]; Donor 2, Day 3) of the same compound?
**A.** 1,220,000 Platelets/μl

**Q.** What about the MPV (apherese blood platelets [1]; Donor 2, Day 5) of the same compound?
**A.** 8.0 fL

**Q.** What about the Platelets/μl (apherese blood platelets [1]; Donor 2, Day 5) of the same compound?
**A.** 1,252,000 Platelets/μl

**Q.** And the MPV (apherese blood platelets [1]; Donor 2, Day 8)?
**A.** 8.0 fL

**Q.** What about the Platelets/μl (apherese blood platelets [1]; Donor 2, Day 8) of the same compound?
**A.** 1,168,000 Platelets/μl

**Q.** What about the MPV (apherese blood platelets [1]; Donor 2, Day 10) of the same compound?
**A.** 8.1 fL

**Q.** And the Platelets/μl (apherese blood platelets [1]; Donor 2, Day 10)?
**A.** 1,104,000 Platelets/μl

**Q.** What about the MPV (apherese blood platelets [1]; Donor 2, Day 12) of the same compound?
**A.** 8.6 fL

**Q.** What about the Platelets/μl (apherese blood platelets [1]; Donor 2, Day 12) of the same compound?
**A.** 1,032,000 Platelets/μl

**Q.** What about the MPV (apherese blood platelets [1]; Donor 2, Day 19) of the same compound?
**A.** 8.8 fL

**Q.** And the Platelets/μl (apherese blood platelets [1]; Donor 2, Day 19)?
**A.** 860,000 Platelets/μl

**Q.** And the MPV (apherese blood platelets [1]; Donor 3, Day 1)?
**A.** 10.3 fL

**Q.** And the Platelets/μl (apherese blood platelets [1]; Donor 3, Day 1)?
**A.** 980,000 Platelets/μl

**Q.** And the MPV (apherese blood platelets [1]; Donor 3, Day 2)?
**A.** 7.7 fL

**Q.** And the Platelets/μl (apherese blood platelets [1]; Donor 3, Day 2)?
**A.** 1,188,000 Platelets/μl

**Q.** And the MPV (apherese blood platelets [1]; Donor 3, Day 3)?
**A.** 7.7 fL

**Q.** And the Platelets/μl (apherese blood platelets [1]; Donor 3, Day 3)?
**A.** 1,072,000 Platelets/μl

**Q.** What about the MPV (apherese blood platelets [1]; Donor 3, Day 5) of the same compound?
**A.** 8.0 fL

**Q.** And the Platelets/μl (apherese blood platelets [1]; Donor 3, Day 5)?
**A.** 1,068,000 Platelets/μl

**Q.** What about the MPV (apherese blood platelets [1]; Donor 3, Day 8) of the same compound?
**A.** 8.3 fL

**Q.** And the Platelets/μl (apherese blood platelets [1]; Donor 3, Day 8)?
**A.** 992,000 Platelets/μl

**Q.** And the MPV (apherese blood platelets [1]; Donor 3, Day 10)?
**A.** 8.3 fL

**Q.** And the Platelets/μl (apherese blood platelets [1]; Donor 3, Day 10)?
**A.** 892,000 Platelets/μl

**Q.** And the MPV (apherese blood platelets [1]; Donor 3, Day 12)?
**A.** 9.0 fL

**Q.** And the Platelets/μl (apherese blood platelets [1]; Donor 3, Day 12)?
**A.** 912,000 Platelets/μl

**Q.** And the MPV (apherese blood platelets [1]; Donor 3, Day 19)?
**A.** 9.5 fL

**Q.** What about the Platelets/μl (apherese blood platelets [1]; Donor 3, Day 19) of the same compound?
**A.** 692,000 Platelets/μl

**Q.** And the MPV (apherese blood platelets [1]; donor 1, Day 1)?
**A.** 10.6 fL

**Q.** And the Platelets/μl (apherese blood platelets [1]; donor 1, Day 1)?
**A.** 1,000,000 Platelets/μl

**Q.** And the MPV (apherese blood platelets [1]; donor 1, Day 2)?
**A.** 9.5 fL

**Q.** And the Platelets/μl (apherese blood platelets [1]; donor 1, Day 2)?
**A.** 1,192,000 Platelets/μl

**Q.** And the MPV (apherese blood platelets [1]; donor 1, Day 3)?
**A.** 9.2 fL

**Q.** What about the Platelets/μl (apherese blood platelets [1]; donor 1, Day 3) of the same compound?
**A.** 1,240,000 Platelets/μl

**Q.** And the MPV (apherese blood platelets [1]; donor 1, Day 5)?
**A.** 9.1 fL

**Q.** And the Platelets/μl (apherese blood platelets [1]; donor 1, Day 5)?
**A.** 1,232,000 Platelets/μl

**Q.** And the MPV (apherese blood platelets [1]; donor 1, Day 8)?
**A.** 9.3 fL

**Q.** What about the Platelets/μl (apherese blood platelets [1]; donor 1, Day 8) of the same compound?
**A.** 1,352,000 Platelets/μl

**Q.** And the MPV (apherese blood platelets [1]; donor 1, Day 10)?
**A.** 9.6 fL

**Q.** And the Platelets/μl (apherese blood platelets [1]; donor 1, Day 10)?
**A.** 1,228,000 Platelets/μl

**Q.** And the MPV (apherese blood platelets [1]; donor 1, Day 12)?
**A.** 9.8 fL

**Q.** What about the Platelets/μl (apherese blood platelets [1]; donor 1, Day 12) of the same compound?
**A.** 1,204,000 Platelets/μl

**Q.** What about the MPV (apherese blood platelets [1]; donor 1, Day 19) of the same compound?
**A.** 8.8 fL

**Q.** What about the Platelets/μl (apherese blood platelets [1]; donor 1, Day 19) of the same compound?
**A.** 1,068,000 Platelets/μl

**Q.** And the “Annexin (% positive)” value (apherese blood platelets [2]; Donor 2, Day 1)?
**A.** 5.98%

**Q.** What about the “Annexin (% positive)” value (apherese blood platelets [2]; Donor 2, Day 2) of the same compound?
**A.** 10.96%

**Q.** What about the “Annexin (% positive)” value (apherese blood platelets [2]; Donor 2, Day 3) of the same compound?
**A.** 19.56%

**Q.** And the “Annexin (% positive)” value (apherese blood platelets [2]; Donor 2, Day 5)?
**A.** 32.11%

**Q.** What about the “Annexin (% positive)” value (apherese blood platelets [2]; Donor 2, Day 8) of the same compound?
**A.** 45.71%

**Q.** What about the “Annexin (% positive)” value (apherese blood platelets [2]; Donor 2, Day 10) of the same compound?
**A.** 53.96%

**Q.** And the “Annexin (% positive)” value (apherese blood platelets [2]; Donor 2, Day 12)?
**A.** 62.97%

**Q.** And the “Annexin (% positive)” value (apherese blood platelets [2]; Donor 2, Day 19)?
**A.** 72.67%

**Q.** And the “Annexin (% positive)” value (apherese blood platelets [2]; Donor 3, Day 1)?
**A.** 5.14%

**Q.** What about the “Annexin (% positive)” value (apherese blood platelets [2]; Donor 3, Day 2) of the same compound?
**A.** 8.68%

**Q.** What about the “Annexin (% positive)” value (apherese blood platelets [2]; Donor 3, Day 3) of the same compound?
**A.** 14.34%

**Q.** And the “Annexin (% positive)” value (apherese blood platelets [2]; Donor 3, Day 5)?
**A.** 27.77%

**Q.** What about the “Annexin (% positive)” value (apherese blood platelets [2]; Donor 3, Day 8) of the same compound?
**A.** 41.97%

**Q.** What about the “Annexin (% positive)” value (apherese blood platelets [2]; Donor 3, Day 10) of the same compound?
**A.** 62.65%

**Q.** And the “Annexin (% positive)” value (apherese blood platelets [2]; Donor 3, Day 12)?
**A.** 70.33%

**Q.** And the “Annexin (% positive)” value (apherese blood platelets [2]; Donor 3, Day 19)?
**A.** 80.99%

**Q.** What about the “Annexin (% positive)” value (apherese blood platelets [2]; donor 1, Day 1) of the same compound?
**A.** 4.51%

**Q.** What about the “Annexin (% positive)” value (apherese blood platelets [2]; donor 1, Day 2) of the same compound?
**A.** 14.48%

**Q.** What about the “Annexin (% positive)” value (apherese blood platelets [2]; donor 1, Day 3) of the same compound?
**A.** 18.24%

**Q.** And the “Annexin (% positive)” value (apherese blood platelets [2]; donor 1, Day 5)?
**A.** 20.38%

**Q.** What about the “Annexin (% positive)” value (apherese blood platelets [2]; donor 1, Day 8) of the same compound?
**A.** 34.56%

**Q.** What about the “Annexin (% positive)” value (apherese blood platelets [2]; donor 1, Day 10) of the same compound?
**A.** 43.52%

**Q.** What about the “Annexin (% positive)” value (apherese blood platelets [2]; donor 1, Day 12) of the same compound?
**A.** 56.91%

**Q.** And the “Annexin (% positive)” value (apherese blood platelets [2]; donor 1, Day 19)?
**A.** 88.34%
